Active and inactive are the calls of the source.
Experiments:
[1] = tested on: Streptococcus; assay: Group A Streptococcus viability loss, dose response, counter-screen for streptokinase expression inhibitor project, luminescence, BacTiterGlo (AID 1915); format: functional, organism-based;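 further: potency for reduction of bacterial viability or growth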
[2] = biological target: T1, E3 ubiquitin-protein ligase XIAP (Homo sapiens, UniProt P98170); assay: XIAP antagonists, biochemical, IAP family, fluorescence polarization (AID 1018); format: functional
[3] = biological target: T1, E3 ubiquitin-protein ligase XIAP; assay: Counter Screen using XIAP-Bir3 for Chemical Antagonists of Bir1/2 domains of IAP-family anti-apoptotic proteins. [Related pubchem assays (depositor defined):AID1018, AID1449, AID1514, AID1638, AID1749, AID1750, AID488957, AID488963]
[4] = biological target: T2, Streptokinase A (Streptococcus pyogenes serotype M1, UniProt P10520); assay: S. pyogenes streptokinase expression inhibitors, potency, dose response, plasminogen activation absorbance, OD405 (AID 1914); format: functional, Streptococcus pyogenes M1 GAS;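 further: secreted streptokinase activity via plasminogen activation per viability signal from cell pellet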
T2 sequence (P10520 whole entry): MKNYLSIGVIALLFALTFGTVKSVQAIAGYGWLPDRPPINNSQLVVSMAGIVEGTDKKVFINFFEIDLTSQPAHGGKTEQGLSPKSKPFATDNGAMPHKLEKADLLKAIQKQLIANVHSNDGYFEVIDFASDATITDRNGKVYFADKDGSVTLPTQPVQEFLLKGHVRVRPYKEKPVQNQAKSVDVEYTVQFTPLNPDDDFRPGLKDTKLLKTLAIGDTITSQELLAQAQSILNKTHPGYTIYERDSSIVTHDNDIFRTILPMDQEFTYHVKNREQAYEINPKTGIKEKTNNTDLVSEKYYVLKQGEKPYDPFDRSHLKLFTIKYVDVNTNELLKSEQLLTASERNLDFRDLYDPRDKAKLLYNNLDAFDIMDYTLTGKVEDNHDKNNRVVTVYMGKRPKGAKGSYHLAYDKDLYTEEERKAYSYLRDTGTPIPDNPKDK

[5] = tested on: Streptococcus sp. 'group A'; assay: growth inhibition of control SK(-) GAS strain, dose response, counter-screen for streptokinase expression inhibitor project, luminescence, kanamycin, BacTiterGlo, confirmation (AID 1900); format: functional, organism-based
[6] = biological target: T3, Ubiquitin-conjugating enzyme E2 N (Homo sapiens, UniProt P61088); format: functional
T3 sequence (P61088 whole entry): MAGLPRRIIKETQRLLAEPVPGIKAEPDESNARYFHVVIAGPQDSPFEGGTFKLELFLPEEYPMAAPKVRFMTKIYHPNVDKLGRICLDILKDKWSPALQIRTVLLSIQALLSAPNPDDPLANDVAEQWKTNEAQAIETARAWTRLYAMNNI

[7] = biological target: T4, Bcl-2-related protein A1 (Mus musculus, UniProt Q07440); format: functional;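 further: confirmatory dose–response counterscreen on Bfl-1, used to check hits from a UBC13 polyubiquitin inhibitor campaign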
T4 sequence (Q07440 whole entry): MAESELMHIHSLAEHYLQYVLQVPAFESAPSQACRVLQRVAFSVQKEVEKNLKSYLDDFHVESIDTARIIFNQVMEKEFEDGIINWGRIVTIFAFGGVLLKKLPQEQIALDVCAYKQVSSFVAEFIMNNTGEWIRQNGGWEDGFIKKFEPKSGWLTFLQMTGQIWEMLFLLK

[8] = biological target: T3, Ubiquitin-conjugating enzyme E2 N; format: functional; remark: listed apart in the source
[9] = biological target: T5, Protein RecA (Mycobacterium tuberculosis, UniProt P9WHJ3); assay: Fluorescence Cell-Free Homogeneous Dose Retest to Identify Inhibitors of RecA-Intein Splicing Activity. [Related pubchem assays (depositor defined):AID2097, AID2223, AID489010, AID492950]; format: functional
T5 sequence (P9WHJ3 whole entry): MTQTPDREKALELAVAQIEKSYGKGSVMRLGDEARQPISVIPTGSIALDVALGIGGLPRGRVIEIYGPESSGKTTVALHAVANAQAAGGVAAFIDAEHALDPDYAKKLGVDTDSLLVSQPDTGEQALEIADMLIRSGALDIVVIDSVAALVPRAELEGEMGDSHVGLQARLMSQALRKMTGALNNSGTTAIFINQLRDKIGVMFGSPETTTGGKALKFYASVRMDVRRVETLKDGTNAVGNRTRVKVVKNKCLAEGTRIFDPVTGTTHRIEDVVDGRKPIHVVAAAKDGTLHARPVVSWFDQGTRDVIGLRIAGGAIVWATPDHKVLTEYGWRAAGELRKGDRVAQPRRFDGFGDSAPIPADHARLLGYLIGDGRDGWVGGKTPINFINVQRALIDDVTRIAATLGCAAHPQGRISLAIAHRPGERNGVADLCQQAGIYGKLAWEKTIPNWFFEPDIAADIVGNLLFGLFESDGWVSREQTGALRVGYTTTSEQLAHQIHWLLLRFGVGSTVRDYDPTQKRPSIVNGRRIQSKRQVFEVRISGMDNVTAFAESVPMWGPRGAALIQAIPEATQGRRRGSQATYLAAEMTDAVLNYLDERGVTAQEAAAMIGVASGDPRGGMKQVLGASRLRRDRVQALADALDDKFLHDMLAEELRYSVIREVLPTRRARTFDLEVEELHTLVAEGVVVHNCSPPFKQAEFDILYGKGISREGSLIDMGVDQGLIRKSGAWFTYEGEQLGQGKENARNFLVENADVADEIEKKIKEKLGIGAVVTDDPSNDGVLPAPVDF

[10] = HepG2 cell cytotoxicity, dose response, cytotoxicity control for non-replicating M. tuberculosis project (AID 489018); format: functional; conditions: Mycobacterium tuberculosis
[11] = THP-1 cell cytotoxicity, dose response, cytotoxicity control for non-replicating M. tuberculosis project (AID 489025); format: functional
[12] = tested on: Vero; assay: Vero cell cytotoxicity, cytotoxicity control for flavivirus capping enzyme inhibitors (AID 588742); format: functional; conditions: Chlorocebus sabaeus
[13] = tested on: H4; assay: Luminescence Cell-Based Dose Response HTS to Identify Activators of 5'UTR Stem-Loop Driven Prion Protein mRNA Translation in H4 Neuroglioblastoma Cells. [Related pubchem assays: 1829 (Project Summary), 1814 (Primary HTS)]; format: functional; conditions: Homo sapiens
[14] = biological target: T6, Polyadenylate-binding protein 1 (Homo sapiens, UniProt P11940); assay: PABP1 MLLE–PAM2 interaction inhibitors, dose response, miRNA deadenylation inhibitor project, biochemical, fluorescence polarization, Cy5-PAM2 peptide, secondary (AID 602260); format: functional; conditions: read-out: IC50_Mean
[15] = microbe, parasite or virus in culture; format: functional; conditions: Mycobacterium tuberculosis
[16] = biological target: T7, Replicative DNA helicase DnaB (Mycobacterium tuberculosis, UniProt P9WMR3); assay: DnaB intein splicing inhibitors, dose response, biochemical, cell-free fluorescence (AID 449749); format: functional
T7 sequence (P9WMR3 whole entry): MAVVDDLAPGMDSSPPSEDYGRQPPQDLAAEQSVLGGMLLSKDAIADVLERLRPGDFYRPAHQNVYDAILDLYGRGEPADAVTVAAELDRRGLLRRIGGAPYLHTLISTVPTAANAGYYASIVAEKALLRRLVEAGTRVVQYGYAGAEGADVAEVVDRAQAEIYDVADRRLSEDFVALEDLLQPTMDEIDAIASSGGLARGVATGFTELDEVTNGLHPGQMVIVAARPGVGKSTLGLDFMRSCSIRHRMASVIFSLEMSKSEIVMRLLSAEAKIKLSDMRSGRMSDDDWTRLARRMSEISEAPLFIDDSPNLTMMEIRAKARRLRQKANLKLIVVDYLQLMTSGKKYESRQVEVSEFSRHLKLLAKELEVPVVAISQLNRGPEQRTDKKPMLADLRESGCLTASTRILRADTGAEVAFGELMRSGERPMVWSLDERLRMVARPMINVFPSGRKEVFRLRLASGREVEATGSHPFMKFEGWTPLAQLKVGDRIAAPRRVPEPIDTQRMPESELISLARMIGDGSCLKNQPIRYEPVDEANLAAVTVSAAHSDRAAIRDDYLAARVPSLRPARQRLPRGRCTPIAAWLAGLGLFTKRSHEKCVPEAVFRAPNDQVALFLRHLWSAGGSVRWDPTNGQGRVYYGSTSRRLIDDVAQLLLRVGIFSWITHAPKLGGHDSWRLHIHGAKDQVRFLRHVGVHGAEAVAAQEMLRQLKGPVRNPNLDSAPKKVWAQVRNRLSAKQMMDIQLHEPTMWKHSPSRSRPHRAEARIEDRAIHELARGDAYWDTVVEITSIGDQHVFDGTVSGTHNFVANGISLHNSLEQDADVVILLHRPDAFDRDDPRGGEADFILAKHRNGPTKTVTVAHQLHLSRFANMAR

[17] = Luminescence Cell-Based Dose Response HTS to Identify Activators of Luciferase Translation or Activity in H4 […] Cells. [Related pubchem assays: 1829 (Project Summary), 1814 (Primary HTS)]; format: functional
[18] = Vero E6 cell cytotoxicity, dose response, cytotoxicity control for non-replicating M. tuberculosis project, secondary assay (AID 492998); format: functional, VeroE6; conditions: Vero C1008
[19] = cells; format: functional
[20] = biological target: T6, Polyadenylate-binding protein 1; assay: PABP1 MLLE–PAM2 binding inhibitor potency, dose response, biochemical, fluorescence polarization, FITC-PAM2 peptide (AID 602259); format: functional; conditions: read-out: IC50_Mean
[21] = Luminescence Cell-Based Dose Confirmation HTS to Identify Activators of 5'UTR Stem-Loop Driven Alpha-Synuclein mRNA Translation in H4 Neuroglioblastoma Cells. [Related pubchem assays: 1829 (Project Summary), 1814 (Primary HTS)]; format: functional
[22] = biological target: Genome polyprotein (dengue virus type 2, UniProt P29990); assay: Dengue-2 NS5 methyltransferase inhibitors, primary screen, biochemical, confirmation dose response (AID 588689); format: functional
Sequence of Genome polyprotein (P29990 2492-3391 limits assumed): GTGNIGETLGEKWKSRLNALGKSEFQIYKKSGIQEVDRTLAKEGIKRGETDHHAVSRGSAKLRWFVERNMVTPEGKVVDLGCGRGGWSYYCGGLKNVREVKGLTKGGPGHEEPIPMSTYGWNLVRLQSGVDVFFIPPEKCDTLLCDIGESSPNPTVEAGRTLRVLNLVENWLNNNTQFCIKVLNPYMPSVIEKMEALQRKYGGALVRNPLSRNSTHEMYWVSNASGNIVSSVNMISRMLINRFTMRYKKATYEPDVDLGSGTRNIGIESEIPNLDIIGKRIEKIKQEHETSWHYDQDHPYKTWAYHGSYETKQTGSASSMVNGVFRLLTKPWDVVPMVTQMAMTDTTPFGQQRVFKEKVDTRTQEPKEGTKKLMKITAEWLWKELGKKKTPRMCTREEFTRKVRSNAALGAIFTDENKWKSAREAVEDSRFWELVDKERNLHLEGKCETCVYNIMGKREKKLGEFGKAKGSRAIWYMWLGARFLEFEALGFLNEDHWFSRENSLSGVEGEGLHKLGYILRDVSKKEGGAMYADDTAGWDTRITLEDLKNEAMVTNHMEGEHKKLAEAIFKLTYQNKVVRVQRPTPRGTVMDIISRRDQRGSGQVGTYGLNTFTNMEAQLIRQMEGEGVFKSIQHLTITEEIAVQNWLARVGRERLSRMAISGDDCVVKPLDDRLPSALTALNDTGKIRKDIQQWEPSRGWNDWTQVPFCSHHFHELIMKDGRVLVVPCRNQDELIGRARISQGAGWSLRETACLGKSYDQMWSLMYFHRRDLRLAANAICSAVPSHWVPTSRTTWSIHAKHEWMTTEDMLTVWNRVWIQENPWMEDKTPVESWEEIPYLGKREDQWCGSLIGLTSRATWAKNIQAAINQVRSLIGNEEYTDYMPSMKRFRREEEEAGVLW

T1 sequence (P98170 whole entry): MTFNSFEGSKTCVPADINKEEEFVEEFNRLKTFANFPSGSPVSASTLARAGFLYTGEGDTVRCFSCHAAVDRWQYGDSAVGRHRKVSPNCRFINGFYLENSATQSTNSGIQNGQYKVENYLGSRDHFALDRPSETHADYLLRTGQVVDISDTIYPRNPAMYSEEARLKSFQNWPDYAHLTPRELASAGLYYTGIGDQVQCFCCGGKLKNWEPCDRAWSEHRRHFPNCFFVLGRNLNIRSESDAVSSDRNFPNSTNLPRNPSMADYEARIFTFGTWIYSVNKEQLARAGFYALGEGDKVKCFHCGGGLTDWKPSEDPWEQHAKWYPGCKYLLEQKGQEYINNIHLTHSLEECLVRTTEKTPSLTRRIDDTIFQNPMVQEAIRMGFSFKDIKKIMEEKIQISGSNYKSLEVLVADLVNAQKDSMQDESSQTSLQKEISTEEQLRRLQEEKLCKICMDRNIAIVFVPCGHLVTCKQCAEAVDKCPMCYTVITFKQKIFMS
T6 sequence (P11940 whole entry): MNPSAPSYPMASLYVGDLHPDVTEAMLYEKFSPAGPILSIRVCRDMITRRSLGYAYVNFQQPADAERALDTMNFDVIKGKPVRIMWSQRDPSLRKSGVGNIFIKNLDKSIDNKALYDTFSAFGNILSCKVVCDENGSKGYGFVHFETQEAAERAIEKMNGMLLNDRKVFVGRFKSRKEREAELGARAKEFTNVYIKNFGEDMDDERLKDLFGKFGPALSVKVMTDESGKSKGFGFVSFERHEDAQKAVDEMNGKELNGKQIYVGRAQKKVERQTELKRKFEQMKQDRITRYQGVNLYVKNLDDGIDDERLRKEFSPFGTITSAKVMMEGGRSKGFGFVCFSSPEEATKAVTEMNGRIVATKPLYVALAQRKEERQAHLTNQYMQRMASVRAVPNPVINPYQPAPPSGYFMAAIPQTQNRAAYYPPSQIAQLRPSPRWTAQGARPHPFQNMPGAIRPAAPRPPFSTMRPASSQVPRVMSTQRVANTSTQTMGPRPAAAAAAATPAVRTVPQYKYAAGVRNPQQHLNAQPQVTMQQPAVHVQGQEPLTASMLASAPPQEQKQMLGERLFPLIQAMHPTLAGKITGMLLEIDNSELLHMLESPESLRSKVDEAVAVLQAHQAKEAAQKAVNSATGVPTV

With `COc1ccc(CCNC(=O)CSc2nncn2N)cc1OC` the EC50 [1] was > 150 µM (not active), the IC50 [2] was > 100 µM (not active) and the IC50 [3] was > 100 µM (inactive). The EC50 [4] was > 150 µM (not active) and the EC50 [5] was > 150 µM (not active).
For `COc1ccc(/C=C/C(=O)Nc2c(C)nn(C)c2C)cc1COc1ccc(Cl)cc1Br`, the IC50 [6] was 15.6 µM (active), the IC50 [7] was 3.32 µM (active) and the IC50 [8] was 17.4 µM (active).
With `O=[N+]([O-])c1cc([N+](=O)[O-])c2cc3ccccc3nc2c1` the EC50 [9] was 1.17 µM (active), the CC50 [10] was 14 µM (active) and the CC50 [11] was 5.67 µM (active). For the same molecule, the CC50 [12] was 10.1 µM (active), the EC50 [13] was 32 µM (active) and the IC50 [14] was > 66 µM (inactive). For the same molecule, the CC50 [15] was 18.9 µM (active), the AC50 [16] was > 380 µM (inconclusive) and the EC50 [17] was > 120 µM (not active). The CC50 [18] was 12.7 µM (active), the IC50 [19] was 0.39 µM (active) and the IC50 [20] was > 66 µM (inactive). The EC50 [21] was > 120 µM (not active) and the IC50 [22] was 6.37 µM (active).

Reference: ChEMBL document CHEMBL1201862, “PubChem BioAssay data set” (2004)
